Measured values: ChEMBL document CHEMBL1133036, “Diacylglycerols with lipophilically equivalent branched acyl chains display high affinity for protein kinase C (PK-C). A direct measure of the effect of constraining the glycerol backbone in DAG lactones” (Bioorg Med Chem Lett, 2000)

test: Partition coefficient (logD); format: physicochemical; conditions: octanol/water

| SMILES | logD |
| --- | --- |
| CC(C)(C)C(=O)OCC(CO)OC(=O)C(C)(C)C (stereo unspecified) | 2 |
| CC(C)C(C/C=C1/CC(CO)(COC(=O)CC(C(C)C)C(C)C)OC1=O)C(C)C (stereo unspecified) | 5 |

The remaining lines, values ahead:

| logD | SMILES |
| --- | --- |
| 5 | CC(C)C(CC(=O)OC[C@H](CO)OC(=O)CC(C(C)C)C(C)C)C(C)C |
| 5 | O=C(OC[C@H](CO)OC(=O)C12CC3CC(CC(C3)C1)C2)C12CC3CC(CC(C3)C1)C2 |
| 5 | CCCCCCCC(=O)OC[C@H](CO)OC(=O)CCCCCCC |
| 7 | CCCCCCCC/C=C/CCCCCCCC(=O)O[C@@H](CO)COC(C)=O [AUTONOM NAME:] |
